The record followed here is patent US12139487B2, “Compounds and uses thereof” (Foghorn Therapeutics Inc., priority 2022, dated 2024).

The target of experiment [1] is T1, BRM (Homo sapiens, UniProt P51531).
T1 construct: made in house; host or cells: High Five insect cells
As to the kind of experiment: ATPase catalytic activity assay (ADP-Glo), BRM. In kind it is biochemical. Conditions: Table 10; for Ratio (BRG1 IC50 (μM) divided by BRM IC50 (μM)): ATPase assay, selectivity BRG1/BRM; for IC50: ATPase catalytic activity assay (ADP-Glo). Here is the method:
(§1) The ATPase catalytic activity of BRM or BRG-1 was measured by an in vitro biochemical assay using ADP-Glo™ (Promega, V9102). The ADP-Glo™ kinase assay is performed in two steps once the reaction is complete. The first step is to deplete any unconsumed ATP in the reaction. The second step is to convert the reaction product ADP to ATP, which will be utilized by the luciferase to generate luminesce and be detected by a luminescence reader, such as Envision.
The assay reaction mixture […] contains 30 nM of BRM or BRG-1, 20 nM salmon sperm DNA (from Invitrogen, UltraPure™ Salmon Sperm DNA Solution, cat #15632011), and 400 μM of ATP in the ATPase assay buffer, which comprises of 20 mM Tris, pH 8, 20 mM MgCl2, 50 mM NaCl, 0.1% Tween-20, and 1 mM fresh DTT (Pierce™ DTT (Dithiothreitol), cat #20290). The reaction is initiated by the addition of the 2.5 μL ATPase solution to 2.5 μL ATP/DNA solution on low volume white Proxiplate-384 plus plate (PerkinElmer, cat #6008280) and incubates at room temperature for 1 hour. Then, following addition of 5 μL of ADP-Glo™ Reagent provided in the kit, the reaction incubates at room temperature for 40 minutes. Then, 10 μL of Kinase Detection Reagent provided in the kit is added to convert ADP to ATP, and the reaction incubates at room temperature for 60 minutes. Finally, luminescence measurement is collected with a plate-reading luminometer, such as Envision.
Background: ADP-Glo turns the ADP formed in a reaction into a luminescent signal.

Experiment [2] concerns the target T2, BRG-1 (Homo sapiens, UniProt P51532).
T2 construct: made in house; host or cells: High Five insect cells
As to the kind of experiment: ATPase catalytic activity assay (ADP-Glo), BRG-1. It counts as biochemical. To be noted: Table 10, read-out: BRG1 IC50. Here is the method: as §1
Then, following addition of 5 μL of ADP-Glo™ Reagent provided in the kit, the reaction incubates at room temperature for 40 minutes. Then, 10 μL of Kinase Detection Reagent provided in the kit is added to convert ADP to ATP, and the reaction incubates at room temperature for 60 minutes. Finally, luminescence measurement is collected with a plate-reading luminometer, such as Envision.

T1 sequence (P51531 whole entry): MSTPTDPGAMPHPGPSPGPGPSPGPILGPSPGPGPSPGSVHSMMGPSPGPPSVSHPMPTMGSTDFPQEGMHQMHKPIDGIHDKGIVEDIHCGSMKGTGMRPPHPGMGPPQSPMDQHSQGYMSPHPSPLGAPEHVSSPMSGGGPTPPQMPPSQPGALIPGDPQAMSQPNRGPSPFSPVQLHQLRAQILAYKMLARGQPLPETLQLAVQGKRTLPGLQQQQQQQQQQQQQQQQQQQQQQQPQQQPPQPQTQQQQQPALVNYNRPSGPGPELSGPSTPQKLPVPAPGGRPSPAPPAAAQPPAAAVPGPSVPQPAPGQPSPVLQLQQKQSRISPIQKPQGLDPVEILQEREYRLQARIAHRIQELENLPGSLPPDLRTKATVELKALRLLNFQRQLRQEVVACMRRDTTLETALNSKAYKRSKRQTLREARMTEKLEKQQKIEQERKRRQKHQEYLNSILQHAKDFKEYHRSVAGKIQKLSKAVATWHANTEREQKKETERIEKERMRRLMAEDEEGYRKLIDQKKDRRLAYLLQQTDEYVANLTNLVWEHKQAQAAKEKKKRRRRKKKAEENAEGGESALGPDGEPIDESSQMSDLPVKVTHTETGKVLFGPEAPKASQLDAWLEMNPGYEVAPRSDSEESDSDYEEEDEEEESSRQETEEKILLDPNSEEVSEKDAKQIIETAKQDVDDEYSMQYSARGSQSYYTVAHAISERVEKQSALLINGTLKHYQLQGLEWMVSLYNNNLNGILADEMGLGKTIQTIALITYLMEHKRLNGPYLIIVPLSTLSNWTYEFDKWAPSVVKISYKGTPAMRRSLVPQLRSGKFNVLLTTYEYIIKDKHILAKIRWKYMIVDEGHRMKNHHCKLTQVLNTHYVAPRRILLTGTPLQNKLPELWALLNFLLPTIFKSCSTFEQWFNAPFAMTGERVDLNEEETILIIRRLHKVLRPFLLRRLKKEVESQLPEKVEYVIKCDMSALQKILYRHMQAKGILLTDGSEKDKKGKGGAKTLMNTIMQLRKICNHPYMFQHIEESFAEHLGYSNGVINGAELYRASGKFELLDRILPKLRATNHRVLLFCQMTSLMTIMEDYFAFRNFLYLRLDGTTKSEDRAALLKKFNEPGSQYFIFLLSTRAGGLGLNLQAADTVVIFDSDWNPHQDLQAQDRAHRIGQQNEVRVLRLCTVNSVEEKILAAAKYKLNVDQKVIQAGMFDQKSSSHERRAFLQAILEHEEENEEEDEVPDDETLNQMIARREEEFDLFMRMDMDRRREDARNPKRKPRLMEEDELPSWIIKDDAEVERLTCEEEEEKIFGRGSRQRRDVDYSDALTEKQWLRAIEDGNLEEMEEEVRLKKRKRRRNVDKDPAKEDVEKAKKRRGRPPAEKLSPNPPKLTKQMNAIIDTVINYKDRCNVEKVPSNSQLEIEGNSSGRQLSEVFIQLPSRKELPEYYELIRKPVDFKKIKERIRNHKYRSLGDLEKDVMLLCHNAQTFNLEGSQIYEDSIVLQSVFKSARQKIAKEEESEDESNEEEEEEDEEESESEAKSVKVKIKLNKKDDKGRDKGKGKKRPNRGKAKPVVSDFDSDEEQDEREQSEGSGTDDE
T2 sequence (P51532 whole entry): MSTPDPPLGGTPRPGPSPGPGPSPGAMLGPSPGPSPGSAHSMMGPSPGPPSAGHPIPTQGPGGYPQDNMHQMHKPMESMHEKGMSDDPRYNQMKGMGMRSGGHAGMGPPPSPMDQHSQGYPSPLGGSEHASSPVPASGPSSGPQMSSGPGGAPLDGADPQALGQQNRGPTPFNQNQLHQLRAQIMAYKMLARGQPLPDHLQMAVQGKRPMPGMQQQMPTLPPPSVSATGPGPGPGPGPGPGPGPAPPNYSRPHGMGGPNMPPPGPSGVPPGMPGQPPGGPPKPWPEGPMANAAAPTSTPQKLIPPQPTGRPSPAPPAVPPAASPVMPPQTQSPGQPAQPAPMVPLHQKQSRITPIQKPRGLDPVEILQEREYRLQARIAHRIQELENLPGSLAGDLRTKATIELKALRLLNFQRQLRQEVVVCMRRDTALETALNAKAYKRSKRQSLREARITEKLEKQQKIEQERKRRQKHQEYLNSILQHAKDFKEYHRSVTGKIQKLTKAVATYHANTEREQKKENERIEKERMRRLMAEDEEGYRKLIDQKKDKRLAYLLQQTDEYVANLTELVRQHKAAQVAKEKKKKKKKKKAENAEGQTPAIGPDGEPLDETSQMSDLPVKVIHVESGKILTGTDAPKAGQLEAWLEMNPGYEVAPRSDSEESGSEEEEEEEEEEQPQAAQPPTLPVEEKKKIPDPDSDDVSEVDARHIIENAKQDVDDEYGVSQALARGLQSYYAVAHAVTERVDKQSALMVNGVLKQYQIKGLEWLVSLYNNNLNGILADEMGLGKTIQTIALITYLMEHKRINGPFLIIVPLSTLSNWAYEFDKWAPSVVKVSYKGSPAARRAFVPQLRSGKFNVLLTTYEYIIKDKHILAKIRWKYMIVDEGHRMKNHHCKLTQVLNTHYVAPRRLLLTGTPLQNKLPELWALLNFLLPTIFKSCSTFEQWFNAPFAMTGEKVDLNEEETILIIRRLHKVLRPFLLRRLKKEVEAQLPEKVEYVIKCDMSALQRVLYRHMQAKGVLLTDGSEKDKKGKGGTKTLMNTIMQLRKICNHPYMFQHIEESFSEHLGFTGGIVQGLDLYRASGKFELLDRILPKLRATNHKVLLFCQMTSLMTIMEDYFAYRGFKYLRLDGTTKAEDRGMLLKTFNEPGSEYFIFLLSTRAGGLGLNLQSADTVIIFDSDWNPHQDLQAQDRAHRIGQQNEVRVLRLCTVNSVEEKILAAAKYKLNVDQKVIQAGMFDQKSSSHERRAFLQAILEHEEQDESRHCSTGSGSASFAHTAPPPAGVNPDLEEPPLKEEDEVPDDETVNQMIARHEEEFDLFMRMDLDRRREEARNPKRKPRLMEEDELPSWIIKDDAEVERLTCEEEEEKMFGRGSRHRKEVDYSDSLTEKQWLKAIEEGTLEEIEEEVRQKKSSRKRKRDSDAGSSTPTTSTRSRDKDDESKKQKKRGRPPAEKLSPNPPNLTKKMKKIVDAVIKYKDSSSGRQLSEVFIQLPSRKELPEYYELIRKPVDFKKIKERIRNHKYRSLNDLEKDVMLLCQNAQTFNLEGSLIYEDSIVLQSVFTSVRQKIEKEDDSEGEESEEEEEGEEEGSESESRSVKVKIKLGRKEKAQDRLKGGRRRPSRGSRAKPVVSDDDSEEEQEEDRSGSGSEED

`C[C@@H]1CN(c2cccc(-c3ccc4cnc(CNC(=O)c5ccc6c(c5)S(=O)(=O)[C@@H](F)CCN6C)cc4n3)n2)C[C@H](C)O1` [Compound 318]: in experiment [1], the “Ratio (BRG1 IC50 (μM) divided by BRM IC50 (μM))” value came to 8.51 and the IC50 (commonly the point on the concentration scale where inhibition reaches its midpoint) is 12.3 nM. Also, the IC50 in experiment [2] stood at 105 nM.
Taken in the same sequence, the figures for `O=C(NCc1cc2cc(-c3cncc(C4CC4)n3)ccc2cn1)c1cc(F)c2c(c1)S(=O)(=O)[C@@H](F)COC2` [Compound 77] were 23.82, 2.8 nM and 67 nM.
Regarding `O=C(NCc1cc2nc(N3CCOc4cc(N5CC(F)(F)C5)cnc43)ccc2cn1)c1cc(F)c2c(c1)S(=O)(=O)[C@@H](F)CCO2` [Compound 244], in experiment [1], the “Ratio (BRG1 IC50 (μM) divided by BRM IC50 (μM))” value is listed as 25.74 and the IC50 is 7.8 nM. The IC50 in experiment [2] is 245 nM.
As for `O=C(NCc1cc2cc(-c3cccc([C@@H]4CC4(F)F)n3)ccc2cn1)c1cc(F)c2c(c1)S(=O)(=O)[C@@H](F)CCO2` [Compound 268], in experiment [1], the “Ratio (BRG1 IC50 (μM) divided by BRM IC50 (μM))” value was 22.51 and the IC50 was 8.8 nM. Moreover, the IC50 in experiment [2] was 199 nM.
Regarding `O=C(NCc1cc2cc(-c3cccc(OC(F)F)n3)ccc2cn1)c1cc(Cl)c2c(c1)S(=O)(=O)[C@@H](F)COC2` [Compound 235, (2R)-6-chloro-N-[[6-[6-(difluoromethoxy)-2-pyridyl]-3-isoquinolyl]methyl]-2-fluoro-1,1-dioxo-3,5-dihydro-2H-4,1λ6-benzoxathiepine-8-carboxamide], in experiment [1], the “Ratio (BRG1 IC50 (μM) divided by BRM IC50 (μM))” value is 23.91 and half-maximal inhibition (IC50) required 7.4 nM. Also, the IC50 in experiment [2] is 163 nM.
For the compound `[2H]C1([2H])OC([2H])([2H])[C@H](F)S(=O)(=O)c2cc(C(=O)NCc3cc4nc(N5CCOc6cc(N7CC(F)C7)cnc65)ccc4cn3)cc(F)c21` [Compound 56], the IC50 was 2.5 nM in experiment [1] and 58.2 nM in experiment [2].
For the compound `O=C(NCc1cc2nc(N3CCCc4ccc(C(F)F)nc43)ccc2cn1)c1cc(Cl)c2c(c1)S(=O)(=O)[C@@H](F)CCO2` [Compound 272], the “Ratio (BRG1 IC50 (μM) divided by BRM IC50 (μM))” value in experiment [1] is 23.60. Moreover, the IC50 in experiment [1] was determined as 8.9 nM; in experiment [2] it was 199 nM.
Taken in the same sequence, the figures for `O=C(NCc1cc2nc(N3CCCc4c3ccnc4OC3CC3)ccc2cn1)c1cc(F)c2c(c1)S(=O)(=O)[C@@H](F)CCO2` [Compound 76] were 16.02, 2.8 nM and 45.1 nM.
As to `O=C(NCc1cc2nc(N3CCOc4cc(C(F)F)cnc43)ccc2cn1)c1cc(F)c2c(c1)S(=O)(=O)[C@@H](F)COC2` [Compound 32], in experiment [1], the “Ratio (BRG1 IC50 (μM) divided by BRM IC50 (μM))” value is reported as 18.96 and the IC50 is 1.9 nM. The IC50 in experiment [2] is 36.7 nM.
For the compound `COCC1(c2cccc(-c3ccc4cnc(CNC(=O)c5cc(F)c6c(c5)S(=O)(=O)[C@@H](F)CCO6)cc4n3)n2)CC1` [Compound 275], in experiment [1], the “Ratio (BRG1 IC50 (μM) divided by BRM IC50 (μM))” value is recorded as 14.02 and the IC50 came to 9.1 nM. Further, in experiment [2], the IC50 came to 128 nM.
Taken in the same sequence, the figures for `C[C@@H]1CN(c2cccc(-c3ccc4cnc(CNC(=O)c5ccc6c(c5)S(=O)(=O)[C@H](F)CCN6C)cc4n3)n2)C[C@H](C)O1` [Compound 319] were 25.94, 192 nM and 4990 nM.
In the same order, the values of `O=C(NCc1cc2nc(N3CCOc4ccc([C@@H]5C[C@H]5C(F)F)nc43)ccc2cn1)c1cc(F)c2c(c1)S(=O)(=O)[C@@H](F)CCO2` [Compound 123] are 12.84, 4.2 nM and 50.6 nM.
For the compound `C[C@H]1C[C@@H]1c1cnc2c(c1)OCCN2c1ccc2cnc(CNC(=O)c3cc(F)c4c(c3)S(=O)(=O)[C@@H](F)CCO4)cc2n1` [Compound 223], in experiment [1], the “Ratio (BRG1 IC50 (μM) divided by BRM IC50 (μM))” value is 13.44 and the IC50 worked out at 7 nM. The IC50 in experiment [2] is 102 nM.
For `CO[C@@H]1CN(c2cccc(-c3ccc4cnc(CNC(=O)c5cc(F)c6c(c5)S(=O)(=O)[C@@H](F)CCO6)cc4n3)n2)C[C@H]1C` [Compound 104], in experiment [1], the “Ratio (BRG1 IC50 (μM) divided by BRM IC50 (μM))” value was 10.21 and the concentration for half-maximal inhibition (IC50) was found to be 3.6 nM. The IC50 in experiment [2] worked out at 42.7 nM.
In the same order, the values of `O=C(NCc1cc2nc(N3CCOc4ccc([C@H]5C[C@@H]5F)nc43)ccc2cn1)c1cc(F)c2c(c1)S(=O)(=O)[C@@H](F)CCO2` [Compound 164] are 32.00, 5.2 nM and 172 nM.
Turning to `COc1cccc(-c2ccc3cnc(CNC(=O)c4cc(Cl)c5c(c4)S(=O)(=O)[C@@H](F)CCO5)cc3n2)n1` [Compound 322], in experiment [1], the “Ratio (BRG1 IC50 (μM) divided by BRM IC50 (μM))” value is listed as 30.39 and the IC50 was determined as 32.2 nM. Further, in experiment [2], the IC50 stood at 1180 nM.
For `[2H]C([2H])([2H])Oc1nc(C(F)F)ccc1-c1ccc2cnc(CNC(=O)c3cc(F)c4c(c3)S(=O)(=O)[C@@H](F)COC4)cc2n1` [Compound 103], in experiment [1], the “Ratio (BRG1 IC50 (μM) divided by BRM IC50 (μM))” value stood at 12.05 and the IC50 came to 3.6 nM. Also, the IC50 in experiment [2] stood at 43.4 nM.
In the same order, the values of `Cn1ccc2c(-c3ccc4cnc(CNC(=O)c5cc(F)c6c(c5)S(=O)(=O)[C@@H](F)CCO6)cc4n3)cccc21` [Compound 191] are 10.64, 5.8 nM and 62.1 nM.
In the same order, the values of `O=C(NCc1cc2nc(N3CCOc4cc(N5C[C@H](F)[C@@H](F)C5)cnc43)ccc2cn1)c1cc(F)c2c(c1)S(=O)(=O)[C@@H](F)CCO2` [Compound 138] are 18.95, 4.7 nM and 88.2 nM.
Taken in the same sequence, the figures for `COc1cnc2c(c1)OCCN2c1ccc2cnc(CNC(=O)c3cc(F)c4c(c3)S(=O)(=O)[C@@H](F)CCO4)cc2n1` [Compound 71] were 17.64, 2.7 nM and 48.3 nM.
In the case of `C[C@@H]1C[C@@H]1c1cnc2c(c1)OCCN2c1ccc2cnc(CNC(=O)c3cc(F)c4c(c3)S(=O)(=O)[C@@H](F)CCO4)cc2n1` [Compound 192], in experiment [1], the “Ratio (BRG1 IC50 (μM) divided by BRM IC50 (μM))” value was 11.37 and the IC50 was 5.9 nM. Further, in experiment [2], the IC50 came out at 66.5 nM.
Taken in the same sequence, the figures for `O=C(NCc1cc(C#Cc2cccc(OC(F)F)n2)ccn1)c1cc(F)c2c(c1)S(=O)(=O)[C@@H](F)COC2` [Compound 184, (R)—N-((4-((6-(difluoromethoxy)pyridin-2-yl)ethynyl)pyridin-2-yl)methyl)-2,6-difluoro-3,5-dihydro-2H-benzo[e][1,4]oxathiepine-8-carboxamide 1,1-dioxide] were 23.91, 143 nM and 3420 nM.
In the same order, the values of `COCCOc1cnc2c(c1)CCCN2c1ccc2cnc(CNC(=O)c3cc(F)c4c(c3)S(=O)(=O)[C@@H](F)CCO4)cc2n1` [Compound 271] are 29.78, 8.9 nM and 294 nM.
Taken in the same sequence, the figures for `COc1ccc(-c2ccc3cnc(CNC(=O)c4cc(F)c5c(c4)S(=O)(=O)[C@@H](F)CCO5)cc3n2)nc1C1CC1` [Compound 181] were 29.09, 5.7 nM and 146 nM.
Turning to `C[C@@H]1CN(c2cnc3c(c2)OCCN3c2ccc3cnc(CNC(=O)c4cc(F)c5c(c4)S(=O)(=O)[C@@H](F)CCO5)cc3n2)C[C@@H]1F` [Compound 284], in experiment [1], the “Ratio (BRG1 IC50 (μM) divided by BRM IC50 (μM))” value is 11.05 and the IC50 was determined as 9.5 nM. Further, the IC50 in experiment [2] was found to be 105 nM.
In the same order, the values of `C[C@@H]1CN(c2cccc(-c3ccc4cnc(CNC(=O)c5cc(F)c6c(c5)S(=O)(=O)[C@H](F)CCCO6)cc4n3)n2)C[C@H](C)O1` [Compound 5] are 9.64, 1.1 nM and 10.9 nM.
Consider `O=C(NCc1cc2nc(-c3cccc(C4CC4)n3)ccc2cn1)c1cc(F)c2c(c1)S(=O)(=O)[C@@H](F)COC2` [Compound 114], for which, in experiment [1], the “Ratio (BRG1 IC50 (μM) divided by BRM IC50 (μM))” value was 29.13 and the IC50 was found to be 4 nM. For the same compound, the IC50 in experiment [2] amounted to 118 nM.
In the same order, the values of `O=C(NCc1cc2nc(-c3cncc(C4CC4)n3)ccc2cn1)c1cc(F)c2c(c1)S(=O)(=O)[C@@H](F)COC2` [Compound 238] are 17.11, 7.6 nM and 132 nM.
Taken in the same sequence, the figures for `COc1nc(-c2ccc3cnc(CNC(=O)c4cc(F)c5c(c4)S(=O)(=O)[C@@H](F)CCO5)cc3n2)ccc1C(F)F` [Compound 143] were 21.43, 4.7 nM and 98.5 nM.
